Blank lines part the entries; values can stand above or below the molecule they belong to. Ends that are not written are not given here.
What was measured:
apelin receptor [1] = test system: apelin receptor; design: method as in earlier work; settings: ref 20 (Galon-Tilleman et al.), cited from earlier work
apelin receptor [2] = biological target: T1, apelin receptor (Homo sapiens, UniProt P35414); assay: Inhibition of forskolin-induced cAMP accumulation assay (DiscoverX); assay type: cell-based; design: host or cells: CHO-K1; settings: for cAMP Assay Fold change: fold change in potency relative to apelin-36; for cAMP Assay RE (relative effectiveness) / cAMP Assay ΔlogR: operational model, compared to apelin-36
T1 sequence (P35414 1-380): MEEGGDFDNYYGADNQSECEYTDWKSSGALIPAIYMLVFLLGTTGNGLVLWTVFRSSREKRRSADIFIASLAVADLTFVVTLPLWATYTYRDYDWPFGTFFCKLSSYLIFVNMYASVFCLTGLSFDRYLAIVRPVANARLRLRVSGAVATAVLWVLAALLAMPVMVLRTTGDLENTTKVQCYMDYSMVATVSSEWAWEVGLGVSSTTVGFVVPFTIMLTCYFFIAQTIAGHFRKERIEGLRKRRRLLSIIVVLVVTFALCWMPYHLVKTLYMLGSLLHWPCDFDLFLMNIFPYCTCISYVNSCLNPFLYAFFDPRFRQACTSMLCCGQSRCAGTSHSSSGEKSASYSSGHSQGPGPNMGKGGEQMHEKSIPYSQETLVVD
Experimental: Cell-based cAMP assay were performed as previously described. Briefly, Chinese Hamster Ovary cells (CHO-K1) cells artificially expressing the human apelin receptor were seeded in Cell Plating media into 96-well plates and incubated for 24 h at 37 °C in 5% CO2. […] Cells were subsequently incubated with cAMP Detection Reagent comprising cAMP Lysis Buffer, Substrate Reagent 1, Substrate Reagent 2 and cAMP Solution D for 1 h at room temperature followed by 3 h incubation with cAMP Reagent A at room temperature and chemiluminescence reading (LumiLITE™ Microplate Reader, DiscoverX). Responses were fitted to a 4-parameter logistic equation in GraphPad Prism 7 (La Jolla, CA, USA) and values of potency, pD2 (-log10 EC50, where EC50 is the concentration producing half maximal response) determined. Data were expressed as percentage inhibition of forskolin-stimulated cAMP production.
(§1) Data were expressed as mean ± SEM. Experiments were performed in triplicates or duplicates and n-values were expressed as number of independent experiments. Potencies of analogues in cell-based assays were compared to native apelin-36 using a one-way ANOVA with Dunnett’s posthoc test in GraphPad Prism 7. A P value < 0.05 was considered statistically significant. Binding affinities in both species were compared using Student’s t-test in Graphpad Prism as described above. Bias calculations were performed as previously described using the operational model for bias, to obtain values for relative effectiveness of the apelin-36 synthetic analogues compared to apelin-36 within each cell-based assay. Bias factors were calculated to compare the relative activities of the analogues between the different pathways – β-arrestin (G protein independent) and cAMP (G protein dependent).

apelin receptor [3] = biological target: T1, apelin receptor; assay: β-Arrestin recruitment assay (DiscoverX AGTRL1); assay type: cell-based; design: host or cells: CHO-K1; settings: for β-Arrestin Assay Fold change: fold change in potency relative to apelin-36; for β-Arrestin Assay RE (relative effectiveness) / β-Arrestin Assay ΔlogR: operational model, compared to apelin-36; for β-Arrestin Assay ΔlogR / β-Arrestin Assay pD2±SEM / EC50: n = 3-4 independent experiments; for β-Arrestin Assay pD2±SEM / EC50: CHO-K1 cells expressing human apelin receptor, 90 min, 37 °C, mean ± SEM, SEM; for EC50: read-out: β-Arrestin Assay pD2±SEM (converted)
Experimental: Experiments were performed using a β-arrestin GPCR Assay (AGTRL1) (DiscoverX, Lot No.: 16L0902) according to methods previously described. CHO-K1 cells artificially expressing the human apelin receptor were seeded in Cell Plating media into 96-well plates and incubated for 48 h at 37 °C in 5% CO2. […] Negative controls were defined with equal volumes of drug solvent (water). The resulting chemiluminescent signal was measured using a LumiLITE™ Microplate Reader (DiscoverX, Fremont, CA). Responses, measured in relative light units, were fitted with a 4-parameter logistic equation in GraphPad Prism 7 (La Jolla, CA, USA) and values of pD2 and maximum response (EMax) were calculated for each compound.
as §1

apelin receptor [4] = biological target: T1, apelin receptor; assay: Bias analysis, cAMP vs β-arrestin (operational model for bias); assay type: cell-based; design: host or cells: CHO-K1; settings: for cAMP vs β-arrestin Assay Bias factor: G protein (cAMP) over β-arrestin; for cAMP vs β-arrestin Assay Bias factor / cAMP vs β-arrestin Assay ΔΔlogR ± SEM: reference ligand apelin-36; for cAMP vs β-arrestin Assay ΔΔlogR ± SEM: difference between ΔlogR in cAMP and β-arrestin pathways
Experimental: as §1, with “A P value < 0.05 was considered statistically significant.” left out, “Bias calculations were performed as previously described using the operational model for bias, to obtain values for relative effectiveness of the apelin-36 synthetic analogues compared to apelin-36 within each cell-based assay.” left out

apelin receptor [5] = biological target: T1, apelin receptor; assay: Radioligand competition binding, human left ventricle homogenate; design: experiments using native rat and human receptor; from tissue; host or cells: human left ventricle from explanted hearts of dilated cardiomyopathy patients; settings: [125I]apelin-13 0.1 nM, 90 min, competitor 50 pM-100 μM, mean ± SEM, n = 3 replicates per concentration; for Ki: human heart homogenate 1.5 mg/ml
Excerpt: Samples of human left ventricle were obtained with informed consent and ethical approval (05/Q104/142) via the Papworth Hospital Research Tissue Bank (08/H0304/56) from the explanted hearts of five dilated cardiomyopathy patients (4 males and 1 female, aged 38–55 years) undergoing transplantation. Studies conformed to the principles outlined in the declaration of Helsinki. All animal research was regulated under the Animals (Scientific Procedures) Act 1986 Amendment Regulations 2012 following ethical review by the University of Cambridge Animal Welfare and Ethical Review Body (AWERB). Adult female and male Sprague Dawley rats (n = 14; aged 7–10 weeks) were sacrificed using overdose of CO2 and cervical dislocation before heart tissue was removed and frozen on dry ice. Hearts were pooled and 2 g tissue transferred into a centrifuge tube (50 ml) containing 20 ml homogenisation buffer (50 mM Tris, 5 mM MgCl2, 5 mM EDTA, 1 mM EGTA at pH 7.4 with protease inhibitor cocktail) on ice. The tissue was homogenised on ice using a polytron probe with 2–3 × 20 s bursts and centrifuged at 3000 rpm for 2 min at 4 °C. The supernatant was further centrifuged at 18,500 rpm for 30 min at 4 °C. The resulting pellet was resuspended in 5 ml homogenisation buffer containing protease inhibitor cocktail and centrifuged at 18,500 rpm for 30 min at 4 °C twice. Final pellets were then resuspended in 10 ml HEPES buffer (50 mM HEPES, pH 7.4) and protein concentration determined. Samples were stored at −70 °C until required.
Competition binding experiments were performed using pooled human homogenised left ventricle (HLV, 1.5 mg/ml) and pooled rat heart homogenates (1.5 mg/ml) as previously described. […] (50 pM-100 μM). […] The samples were then re-centrifuged to collect protein pellets before bound radioactivity in these pellets were counted using Packard Cobra II Auto Gamma Counter (Packard). Data were analysed with Graphpad Prism 7 (Graphpad Software, Inc. La Jolla, CA), using the One-site Fit Ki equation.

apelin receptor [6] = biological target: T2, apelin receptor (Rattus norvegicus, UniProt Q9JHG3); assay: Radioligand competition binding, rat heart homogenate; settings: [125I]apelin-13 0.1 nM, 90 min, competitor 50 pM-100 μM, mean ± SEM, n = 3 replicates per concentration
T2 construct: experiments using native rat and human receptor; from tissue; host or cells: pooled hearts of Sprague Dawley rats
T2 sequence (Q9JHG3 1-377): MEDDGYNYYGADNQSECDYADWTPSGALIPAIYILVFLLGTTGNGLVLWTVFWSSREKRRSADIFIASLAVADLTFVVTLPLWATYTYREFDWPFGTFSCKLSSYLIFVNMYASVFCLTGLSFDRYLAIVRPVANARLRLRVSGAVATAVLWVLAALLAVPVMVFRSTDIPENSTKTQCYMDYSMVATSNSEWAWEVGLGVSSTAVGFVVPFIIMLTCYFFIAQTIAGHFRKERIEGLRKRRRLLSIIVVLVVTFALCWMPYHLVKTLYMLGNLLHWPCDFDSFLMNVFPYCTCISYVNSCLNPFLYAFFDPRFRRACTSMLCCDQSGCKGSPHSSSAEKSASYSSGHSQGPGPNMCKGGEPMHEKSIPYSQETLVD
Excerpt: Samples of human left ventricle were obtained with informed consent and ethical approval (05/Q104/142) via the Papworth Hospital Research Tissue Bank (08/H0304/56) from the explanted hearts of five dilated cardiomyopathy patients (4 males and 1 female, aged 38–55 years) undergoing transplantation. Studies conformed to the principles outlined in the declaration of Helsinki. All animal research was regulated under the Animals (Scientific Procedures) Act 1986 Amendment Regulations 2012 following ethical review by the University of Cambridge Animal Welfare and Ethical Review Body (AWERB). Adult female and male Sprague Dawley rats (n = 14; aged 7–10 weeks) were sacrificed using overdose of CO2 and cervical dislocation before heart tissue was removed and frozen on dry ice. […] Final pellets were then resuspended in 10 ml HEPES buffer (50 mM HEPES, pH 7.4) and protein concentration determined. […]
Competition binding experiments were performed using pooled human homogenised left ventricle (HLV, 1.5 mg/ml) and pooled rat heart homogenates (1.5 mg/ml) as previously described. […] The samples were then re-centrifuged to collect protein pellets before bound radioactivity in these pellets were counted using Packard Cobra II Auto Gamma Counter (Packard). Data were analysed with Graphpad Prism 7 (Graphpad Software, Inc. La Jolla, CA), using the One-site Fit Ki equation.

[7] = biological target: T3, apelin receptor (Rattus norvegicus), Q9JHG3; assay: radioligand competition binding, heart homogenate; settings: modification not given
T3 chain: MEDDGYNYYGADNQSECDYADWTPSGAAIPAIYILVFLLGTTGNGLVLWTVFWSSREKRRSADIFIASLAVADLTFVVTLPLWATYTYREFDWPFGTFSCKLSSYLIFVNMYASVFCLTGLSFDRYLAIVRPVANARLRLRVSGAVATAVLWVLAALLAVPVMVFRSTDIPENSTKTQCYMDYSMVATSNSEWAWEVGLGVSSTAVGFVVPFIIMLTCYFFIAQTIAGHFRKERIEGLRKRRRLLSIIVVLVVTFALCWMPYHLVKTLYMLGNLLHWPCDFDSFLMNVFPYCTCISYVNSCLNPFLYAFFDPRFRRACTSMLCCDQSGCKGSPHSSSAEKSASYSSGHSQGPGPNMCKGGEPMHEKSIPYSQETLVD

[8] = n = 3-4 independent experiments
[9] = CHO-K1 cells expressing human apelin receptor, 15 μM forskolin, 30 min, 37 °C, n = 3-4 independent experiments, read-out: cAMP Assay EC50
[10] = CHO-K1 cells expressing human apelin receptor, 15 μM forskolin, 30 min, 37 °C, mean ± SEM, n = 3-4 independent experiments, SEM, read-out: cAMP Assay pD2±SEM (converted)

Molecule: Apelin-13 [reference compound]
agonist character at apelin receptor (comment) (apelin receptor [1]; comment in Table 1): QRPRLSHKGPMPF (full agonist)

Molecule: Apelin-36-[L28C(30kDa-PEG)]: apelin-36 with leucine-28 to cysteine substitution, cysteine-28 PEGylated (30kDa)
cAMP Assay Fold change (apelin receptor [2]): 104 fold
cAMP Assay RE (relative effectiveness) (apelin receptor [2]): 0.01
cAMP Assay ΔlogR (apelin receptor [2]; [8]): −1.95 ± 0.31
fold less potent / less active at apelin receptor compared to apelin-36 (apelin receptor [1]; β-arrestin activation): 10,000 fold
β-Arrestin Assay Fold change (apelin receptor [3]; listed as Apelin-36-[L28C (30kDa-PEG)]): 1324 fold
β-Arrestin Assay Fold change (apelin receptor [3]; listed as apelin-36-[L28C(30kDa-PEG)]): 1400 fold
β-Arrestin Assay RE (relative effectiveness) (apelin receptor [3]): 0.0002
β-Arrestin Assay ΔlogR (apelin receptor [3]): −3.71 ± 0.12
fold more potent in the cAMP assay compared to the β-arrestin assay (apelin receptor [4]; CHO-K1 cells expressing human apelin receptor): ~10 fold
cAMP vs β-arrestin Assay Bias factor (apelin receptor [4]): 58
cAMP vs β-arrestin Assay ΔΔlogR ± SEM (apelin receptor [4]): 1.76 ± 0.33

Molecule: Apelin-36-[L28C(30kDa-PEG)]: apelin-36 with leucine-28 to cysteine substitution, cysteine-28 PEGylated (30kDa) (LVQPRGSRNGPGPWQGGRRKFRRQRPRCSHKGPMPF)
EC50 (apelin receptor [2]; [9]): 95.3 nM
pKi (apelin receptor [5]; human heart homogenate […]): 8.00 ± 0.05
β-Arrestin Assay pD2±SEM (apelin receptor [3]): 6.05 ± 0.06
pKi (apelin receptor [6]): 8.06 ± 0.37

Molecule: LVQPRGSRNGPGPWQGGRRKFRRQRPRLSHKGPMPA [Apelin-36-[F36A]]
EC50 (apelin receptor [2]; [10]): 1.26 nM
EC50 (apelin receptor [3]): 8.13 nM

Molecule: [40kDa-PEG]-Apelin-36: N-terminal PEGylated (40kDa) apelin-36
cAMP Assay Fold change (apelin receptor [2]): 2 fold
cAMP Assay RE (relative effectiveness) (apelin receptor [2]): 1.20
cAMP Assay ΔlogR (apelin receptor [2]; [8]): 0.08 ± 0.40
β-Arrestin Assay Fold change (apelin receptor [3]): 3 fold
β-Arrestin Assay RE (relative effectiveness) (apelin receptor [3]): 0.26
β-Arrestin Assay ΔlogR (apelin receptor [3]): −0.59 ± 0.16
cAMP vs β-arrestin Assay Bias factor (apelin receptor [4]): 5
cAMP vs β-arrestin Assay ΔΔlogR ± SEM (apelin receptor [4]): 0.67 ± 0.43

Molecule: [40kDa-PEG]-Apelin-36: N-terminal PEGylated (40kDa) apelin-36 (LVQPRGSRNGPGPWQGGRRKFRRQRPRLSHKGPMPF)
cAMP Assay pD2±SEM (apelin receptor [2]; CHO-K1 cells expressing human apelin receptor, 15 μM forskolin, 30 min, 37 °C, mean ± SEM, n = 3-4 independent experiments, SEM): 8.69 ± 0.22
β-Arrestin Assay pD2±SEM (apelin receptor [3]): 8.71 ± 0.15

Now from value to molecule, other results behind:

EC50 (apelin receptor [2]; [10]): 7.59 nM
EC50 (apelin receptor [3]): 151 nM
Molecule: LVQPRGSRNGPGAWQGGRRKFRRQRPRASHKGPMPF [Apelin-36-[A13 A28]]

EC50 (apelin receptor [2]; [9]): 13.1 nM
EC50 (apelin receptor [3]): 37.2 nM
Molecule: LVQPRGSRNGPGPWQGGRRKFRRQRPRASHKGPMPF [Apelin-36-[L28A]]
Ki (apelin receptor [5]): 3.02 nM

EC50 (apelin receptor [2]; [10]): 0.912 nM
EC50 (apelin receptor [3]): 0.676 nM
Ki (apelin receptor [6]): 0.0589 nM
Molecule: LVQPRGSRNGPGPWQGGRRKFRRQRPRLSHKGPMPF [Apelin-36]
Ki (apelin receptor [5]): 0.0525 nM

Ki [7]: 0.309 nM
B1: apelin-36-[L28A] (peptide)
chain: LVQPRGSRNGPGPWQGGRRKFRRQRPRASHKGPMPF
modifications: not fully specified

— publication PMC6838674, “Apelin-36-[L28A] and Apelin-36-[L28C(30kDa-PEG)] peptides that improve diet induced obesity are G protein biased ligands at the apelin receptor” (Peptides, 2019)
